In publication PMC12169669, “Regio- and Stereoselective Synthesis of Nitro-fatty Acids as NRF2 Pathway Activators Working under Ambient or Hypoxic Conditions” (Journal of Medicinal Chemistry, 2025):

Columns and labels:
[1] = system: Gclm; assay: GCLM protein level in BMCs (Western blot); assay type: cell-based, mouse; conditions: 2 μM, 7 h
Description: (§1) Primary bone marrow cells (BMCs) were isolated from 8–12-week-old male C57BL/6 mice (25–30 g, AnLab, Czech Republic). Mice were housed under standard conditions. BMCs were isolated as follows: The day before isolation, phosphate-buffered saline (PBS), ACK Lysis Buffer (A10492-01, Thermo Fisher Scientific), and Iscove’s Modified Dulbecco’s Medium (IMDM) (12440-053, Thermo Fisher Scientific) were placed in a hypoxic chamber (InvivO2 400, Baker Ruskinn, UK) with adjustable oxygen control to equilibrate for the target oxygen concentrations. On the day of the experiment, animals were euthanized using ketamine/xylazine, and bilateral femurs were extracted. BMCs were flushed with hypoxic (1% O2 unless stated otherwise) PBS supplemented with 2% fetal bovine serum (FBS; low endotoxin, FB-1101/500, Biosera, France). After hemolysis at room temperature using hypoxic ACK Lysis Buffer, nucleated BMCs were washed with hypoxic PBS + 2% FBS and counted using a TC20 automated cell counter (Bio-Rad). Cells were kept under hypoxic conditions prior to treatment. The medium for BMC culture, consisting of IMDM with 2% FBS and 1% penicillin/streptomycin (LM-A4118/100, Biosera, France), was supplemented with 10 ng/mL mouse IL-3, 10 ng/mL mouse IL-6, and 50 ng/mL mouse stem cell factor - SCF (213-13, 216-16, and 250-03, respectively; all from PeproTech). Cells were cultured at 37 °C in a humidified atmosphere containing 5% CO2 and the specified oxygen concentrations (21%, 4%, or 1%).
Briefly, 1.5 × 10^6 BMCs were placed in 0.2 mL of complete medium in 1.5 mL microtubes and incubated with 2 μM NO2FAs or the control (medium only) for 1 (NRF2), 4 (heme oxygenase-1, HO-1), or 7 (glutamate-cysteine ligase modifier subunit, GCLM) hours at the specified oxygen levels (21%, 4%, or 1%). Cells were then spun down and washed with PBS (from this step onward, cells were processed under atmospheric conditions). Next, cells were lysed in 60 μL RIPA buffer (89901, Thermo Fisher Scientific) containing protease and phosphatase inhibitors cocktail (78442, Thermo Fisher Scientific). Cell lysates were sonicated and centrifuged at 15,000g for 3 min at 4 °C, and 15 μL of lane marker (3900, Thermo Fisher Scientific) was added to the supernatants. Samples were boiled for 3 min at 95 °C. Equal volumes of lysates (15–45 μL/well) were loaded onto 7–15% SDS-polyacrylamide gels. Proteins were then transferred onto PVDF membranes (IPVH85R, EMD Millipore Corp.) and blocked with 5% nonfat dry milk in TBST. Membranes were incubated overnight at 4 °C with the following primary antibodies: anti-β-actin (1:1000; #3700, Cell Signaling Technology), antivinculin (1:10,000; #SAV9264, Sigma-Aldrich), anti-NRF2 (1:500; A308758, Lot 38410, Antibodies.com, UK), anti-HO-1 (1:1000; #43966, Cell Signaling Technology), antihistone H3 (1:2000; #4499, Cell Signaling Technology), or anti-GCLM (1:100; sc-55586, Santa Cruz Biotechnology). This was followed by incubation with corresponding HRP-linked secondary antibodies (antimouse IgG, #7076, 1:1000–5000; or antirabbit IgG, #7074, 1:1000–2000; both from Cell Signaling Technology) for 1 h at room temperature. Protein bands were visualized using an enhanced chemiluminescent substrate (SuperSignal 34577/34095, Thermo Fisher Scientific). The optical densities of detected proteins were measured using ImageJ v1.52 (NIH).
4 Expression of NRF2-target proteins HO-1 and GCLM. NO 2 FA derivatives upregulate the expression of NRF2-target proteins in mouse BMCs. BMCs were cultured under 21% or 1% oxygen conditions and treated with 2 μM of the tested NO 2 FAs for 4 h (A, B) or 7 h (C, D). HO-1 (A, B) and GCLM (C, D) expression in whole-cell lysates was subsequently analyzed. Results are presented as the fold change relative to control cells across different oxygen culture conditions. Data are expressed as mean ± SD from 3–5 independent experiments (n = 3–5). […]

[2] = system: Hmox1; assay: Relative gene expression of Hmox1 in BMCs (qRT-PCR); assay type: cell-based, mouse; conditions: 2 μM, 4 h; for Hmox1 relative expression: 4% and 1% oxygen
Description: as §1
For the relative gene expression of nuclear factor erythroid 2-related factor 2 (NRF2, encoded by Nfe2l2), heme oxygenase-1 (Hmox1), and Glutamate-Cysteine Ligase Modifier Subunit (Gclm) (Mm00477784_m1, Mm00516005_m1, Mm00514996_m1, all from Thermo Fisher Scientific), mouse BMC (3 × 10^6 cells) were cultivated on a 6-well plate in 1.5 mL of complete media (see Isolation and culture of primary cells), and then incubated with 2 μM NO2FAs or control (medium only) for 4 h at the specified oxygen levels (21%, 4%, or 1%). Then, the adherent and nonadherent cells were washed with PBS and lysed using a NucleoSpin RNA Plus kit (740984, Machery-Nagel; Germany). The concentration and purity of isolated RNA was assessed using an Infinite M200 Pro spectrophotometer (Tecan, Austria). Total RNA (0.2 μg) was reversely transcribed into first strand cDNA using a RevertAid First Strand cDNA Synthesis kit according to the manufacturer’s protocol (K1622, Thermo Fisher Scientific). qRT-PCR reactions were performed in a LightCycler480 instrument (Roche; Switzerland) using TaqMan FastAdvanced Master Mix for qPCR (4444557, Thermo Fisher Scientific) and the following program was used: uracil-N-glycosylase activation step at 50 °C for 2 min, an initial denaturation step at 95 °C for 2 min, followed by 45 cycles (95 °C for 3 s, 60 °C for 30 s), and a final cooling step at 40 °C for 1 min. Data were normalized to ribosomal protein L32 (Rpl32, Mm02528467_g1, Thermo Fisher Scientific) and presented as 2^–Δcq.
3 Expression of NRF2 and its target genes in response to NO2FA derivatives. BMCs were cultured under 4% or 1% oxygen conditions and treated for 4 h with the tested NO 2 FAs (2 μM) or medium followed by quantification of (A) Nfe2l2, (B) Hmox1, and (C) Gclm with PCR. Results are presented as relative expression across different oxygen culture conditions. Dimethyl fumarate (DMF) was added as a control. Data are expressed as mean ± SD from 3 to 7 independent experiments (n = 3–7), analyzed with one-way ANOVA with Dunnett’s multiple comparisons test compared to the controls (*p < 0.05; **p < 0.01; ***p < 0.001).
Relative expression of (A) Hmox1 and (B) Gclm in different oxygen […]
Figure S 2. Relative expression of (A) Hmox1 and (B) Gclm in different oxygen conditions. BMCs were cultured under varying oxygen conditions (21, 4, and 1%) and treated for 4 hours with the tested 10 -NO₂OA (2 µM) or medium followed by quantification […]
with PCR. […]

Row | SMILES | GCLM protein level, fold change relative to control ([1]; 1% oxygen) | GCLM protein level, fold change relative to control ([1]; 21% oxygen) | Hmox1 relative expression [2] | Hmox1 expression at 1% oxygen compared to 21% ([2]; 1% vs 21% oxygen)
1 | CCCCCCCC/C=C(\CCCCCCCC(=O)O)[N+](=O)[O-] [9-NO2OA, (9E)-9-Nitro-oleic Acid] | nearly the same increase | nearly the same increase | significant upregulation | 
2 | CCCCCC/C=C/C=C(\CCCCCCCC(=O)O)[N+](=O)[O-] [9-NO2cLA, (9E,11E)-9-Nitro Conjugated Linoleic Acid] |  |  | upregulation that was dependent on oxygen levels | 
3 | CCCCC/C=C\C/C(=C\CCCCCCCC(=O)O)[N+](=O)[O-] [10-NO2LA, (9E,12Z)-10-Nitro Linoleic Acid] |  | only significant at 21% oxygen | upregulation that was dependent on oxygen levels or specific target genes | 
4 | CCCCCCCC/C(=C\CCCCCCCC(=O)O)[N+](=O)[O-] [10-NO2OA, (9E)-10-Nitro-oleic Acid] | nearly the same increase | nearly the same increase | significant upregulation | significantly upregulated
5 | CCCCCCCCC(CCCCCCCCC(=O)O)[N+](=O)[O-] (stereo not shown) [10-NO2SA, 10-Nitro Stearic acid] | no significant effects | no significant effects | no effects | 
